The values below come from patent US5567716A, “Trans and cis traumatic acid salts having cicatrizant activity associated to bacteriostatic, antiviral, antibiotic or antifungal activity” (priority 1992, dated 1996).

Series [1] concerns Balb/C 3T3 fibroblasts. In words: Cell growth of Balb/C 3T3 fibroblasts, crystal violet colorimetry (1.1b). In kind it is cell-based, Mouse. Particulars: for cell growth t2/t1: 48 h/24 h, control 76.776. On the procedure: Mouse Balb/C 3T3 fibroblasts were grown in DMEM medium supplemented with penicillin (100 units/ml) and streptomycin (0.1 mg/ml). For experimental purposes, cells are routinely inoculated in […] diameter culture dishes (5000cells/dish) and cultured overnight.
The compounds to be tested are solubilized in DMEM+10%FCS and DMSO to obtain the final concentration of 10^-5 M, 10^-6 M e 10^-7 M in 0.05% DMSO.
The cells number is measured 4, 24 and 48 hours after seeding. The cell growth is evaluated as t2/t1 ratio (%).

Series [2] relates to B.subtilis ATCC 6633. In words: Evaluation of bacteriostatic minimal concentration (BMC). Format: cell-based. The note with it: Table 2.b)5; test concentrations given in μg/ml. On the procedure:
(§1) 1. Culture Medium: Tryprone Soy Broth (TBS) - Biogenetics
(§2) Microbic standard strains from American Type Culture Collection (ATCC) were used, chosen among aerobic Gram positive and negative as follows:
(§3) The broths culture of the different species are prepared growing the standard strain (kept in Tryptic Soy Agar (TSA) slent at 5° C.) in Tryptone Soy Broth (TSB) for 12 hours at 37° C. 10 ml are then taken up from each culture, centrifugated for 3 times at 3500 PM washing each time the sediment using 10 ml of sterile saline solution. The sediment is resuspended in the saline solution until obtainment of a turbidity corresponding to the Mc Farland standard solution (the suspension title must be […] UFC/ml).
(§4) The compounds, dissolved as stock solution, were added to test tubes containing 5 ml TBS in order to obtain the desired Final concentration 10000; 5000; 1000; 200; 40; 2; 0.4; 0.05 μg/ml (culture medium maximal dilution=1/10).
(§5) 50 μl of bacterial suspension are added to the tube containing the compounds to be tested and incubated at 37° C.: the densitometric determination is made in comparison with Mc Farland standard solution 24 and 48 hours later.
(§6) After the incubation time the suspensions ape gently agitated; 50 μl of each suspension are inoculated in tubes containing […] of TSB and incubated at 37° C.; the densitometric determination is made 48 hours later.
(§7) BMC is defined by comparison between the two densitometric evaluation.

Series [3] has as its system C.albicans ATCC 10231. The description is as above. In kind it is cell-based. Particulars: Table 2.b)6; test concentrations given in μg/ml. On the procedure:
as §1, §2, §3, §4, §5, §6, §7

Series [4] relates to Ps.aeruginosa ATCC 35422. The series is described as above. Format: cell-based. The note with it: Table 2.b)1; test concentrations given in μg/ml. The protocol:
as §1, §2, §3, §4, §5, §6, §7

The test system of series [5] is St.aureus ATCC 65380. The description is as above. Format: cell-based. The note with it: Table 2.b)2; test concentrations given in μg/ml. The protocol:
as §1, §2, §3, §4, §5, §6, §7

Series [6] relates to St.epidermidis ATCC 14990. The series is described as above. In kind it is cell-based. The note with it: Table 2.b)4; test concentrations given in μg/ml. On the procedure:
as §1, §2, §3, §4, §5, §6, §7

For series [7], the system named is E.coli ATCC 35218. Put plainly: microbe, parasite or virus in culture. Format: cell-based. The note with it: Table 2.b)3; test concentrations given in μg/ml. On the procedure: as §1, §2, §3, §4, §5, §6, §7
Series [8] concerns fibroblast cells L929. In words: Cell growth of fibroblast L929 culture, crystal violet colorimetry (1.2). The note with it: in words; for promotion of cell growth (proliferation): benzethonium > gentamycin salt.
Method: Mice fibroblast cells L929, clone derived from connective tissue, are suspended in Eagle's MEM with penicillin (100U/ml)--streptomycin (0.1 mg/ml), seeded in culture dishes (10000cells/dish) and cultured overnight. After 24 hours the culture medium was decantated and the tested compounds are added. The cellular density is measured after 4 (t0) and 24 (t1) hours of incubation at 37° C. in 5% CO2 air by colorimetry using crystal violet (exposure for 15 minutes, room temperature; absorbance 570 nm).
The cells number is measured at 4 (t0) and 24 (t1) hours from the seeding. The cell growth is evaluated at t1/t0 rate (%).

On to `CCC[C@@H]1C[C@@H](C(=O)N[C@@H]([C@H]2O[C@H](SC)[C@H](O)[C@@H](O)[C@H]2O)[C@@H](C)O)N(C)C1.O=C(O)/C=C/CCCCCCCCC(=O)O` (relative stereo) [Lincomycin Traumatate, lincomycin trans-traumatate], for which the “promotion of cell growth” value in [1] (10^-5 to 10^-7 M, in words, lincomycin > rolitetracycline > erythromycin salt) is recorded as “capable to promote cell growth at all the tested doses”. Moreover, the Cell density in [1] (4 h (t0), 10^-5M, control 0.300) is 0.361; in series [1] (4 h (t0), 10^-6M, control 0.300), 0.352; in series [1] (4 h (t0), 10^-7M, control 0.300) it was 0.384; in series [1] (24 h (t1), 10^-5M, control 0.481), 0.228; in series [1] (24 h (t1), 10^-6M, control 0.481), 0.210; in series [1] (24 h (t1), 10^-7M, control 0.481), 0.209. The Cell density turned out to be 0.693 in series [1] (48 h (t2), 10^-5M, control 0.849); 0.734 in series [1] (48 h (t2), 10^-6M, control 0.849); 0.705 in series [1] (48 h (t2), 10^-7M, control 0.849). Moreover, the results for the “cell growth t2/t1” value in series [1] (10^-5M), in [1] (10^-6M) and in series [1] (10^-7M) were 195.78%, 246.29% and 247.68%, respectively. The “cell growth effect compared to traumatic acid” value in [1] (in words) is “more consistent if compared to the corresponding one of the parent compound traumatic acid”. In addition, the “MINIMAL BACTERIAL CONCENTRATION” value was 1,000.00 in series [2]; 10,000.00 in [3]; 10,000.00 in series [4]; 10,000.00 in series [5]; 200.00 in series [6]; 10,000.00 in [7]. Further, the organic solvent solubility (dmso) is more than 10 mg/mL. The compound further gave a solubility in water (water) of more than 10 mg/mL.
With `CC(C)(C)CC(C)(C)c1ccc(OCCOCC[N+](C)(C)Cc2ccccc2)cc1.CC(C)(C)CC(C)(C)c1ccc(OCCOCC[N+](C)(C)Cc2ccccc2)cc1.O=C([O-])/C=C/CCCCCCCCC(=O)[O-]` [Benzethonium Traumatate, benzethonium trans-traumatate], the “MINIMAL BACTERIAL CONCENTRATION” value in [2] was found to be 8.00; in [3], 2.00; in series [4], 200.00; in series [5] it was 2.00; in [6], 2.00; in series [7], 40.00. For the same compound, the “cell growth effect compared to traumatic acid” value in series [8] is on record as “higher than traumatic acid effect”. Moreover, the “promotion of cell growth (proliferation)” value in [8] was “capable to promote cell growth (proliferation) according to dose-effect relationship”.
With “gentamycin trans-traumatate [Gentamycin Traumatate]”, the “MINIMAL BACTERIAL CONCENTRATION” value in series [2] was 40.00; in series [3], > 10,000; in [4], 1,000.00; in [5], 1,000.00; in series [6], 200.00; in series [7], 200.00. In series [8], the “cell growth effect compared to traumatic acid” value is reported as “higher than traumatic acid effect”. Also, the “promotion of cell growth (proliferation)” value in [8] is reported as “capable to promote cell growth (proliferation) according to dose-effect relationship”.
